Measured values: patent US6150413A, “Triaromatic compounds and pharmaceutical/cosmetic compositions comprised thereof” (Centre International de Recherches Dermatologiques, priority 1997, dated 2000)

Assays:
RAR [1] = assay: mouse-ear oedema induced by topical application of CD270 (test to identify RAR-antagonist molecules); assay type: in vivo; conditions: for % of inhibition of the agonist activity: mouse-ear oedema, topical, agonist CD270 0.01% w/v; for RAR-antagonist classification from the mouse-ear oedema table: results in words
Excerpt: (§1) The compounds according to the invention show activity in the test of differentiation of mouse embryonic teratocarcinoma cells (F9) (Cancer Research 43, p. 5268, 1983) and/or in the test of inhibition of ornithine decarboxylase after induction with TPA in mice (Cancer Research 38, p. 793-801, 1978). These tests show the activities of these compounds in the fields of cell differentiation and proliferation respectively. In the cell (F9) differentiation test, it is possible to evaluate an agonist activity as an antagonist activity to retinoic acid receptors. […] These compounds are thus also active in a test which consists in identifying RAR-antagonist molecules, as described in French patent application No. 95/07302 filed on Jun. 19, 1995 by the Applicant. This test comprises the following steps: (i) a sufficient amount of an RAR-agonist molecule is applied topically to an area of the skin of a mammal, (ii) a molecule capable of showing RAR-antagonist activity is administered systemically or topically to this same mammal or to this same area of the mammal's skin, before, during or after step (i), and (iii) the response on the area of the mammal's skin thus treated is evaluated. Thus, the response to a topical application to a mammal's ear of an RAR-agonist molecule, which corresponds to an increase in the thickness of that ear, can be inhibited by the systemic or topical administration of an RAR-antagonist molecule.
Results of a test to identify RAR-antagonist molecules, as described in French patent application No. 95/07302 filed on Jun. 19, 1995 by the Applicant.
The test used is that of mouse-ear oedema induced by topical application of 2-(5,6,7,8-tetrahydro-5,5,8,8-tetramethyl-2-naphthyl)-6-benzo[b]-thiophenecarboxylic acid (CD270) at a concentration of 0.01% on a weight per unit volume basis.
The response can be inhibited by the topical administration of a dose (expressed in % on a weight per unit volume basis) of compound X.

RAR [2] = assay: differentiation of mouse embryonic teratocarcinoma cells (F9), inhibition of the activity of agonist CD2043 (RAR-antagonist identification); assay type: cell-based; conditions: for % of inhibition of the agonist activity: F9 cells, compound 10^-5 M, agonist CD2043 10^-8 M; for RAR-antagonist classification from the F9 table: results in words
Excerpt: as §1
Results of a test of differentiation of mouse embryonic teratocarcinoma cells (F9) in order to identify RAR-antagonist molecules, described in Cancer Research 43, p. 5268, 1983.
In the test used, a compound is considered as being an RAR antagonist if it lowers the activity of the agonist (4-[(5,5,8,8-tetramethyl-5,6,7,8-tetrahydro-2-naphthylamino)methyl]benzoicacid, referred to as compound CD2043) on the morphology and secretion of the plasminogen activator by the F9 cells. In this test, the compounds are tested at 10^-5 M and the CD2043 is tested at 10^-8 M.

SMILES: CC1(C)CCC(C)(C)c2cc(-c3cc4ccc(C(=O)O)cc4s3)ccc21 [CD270, 2-(5,6,7,8-tetrahydro-5,5,8,8-tetramethyl-2-naphthyl)-6-benzo[b]-thiophenecarboxylic acid, reference compound]
- inflammation / thickness of the mouse's ear (RAR [1]; topical CD270, 0.01% w/v, mouse ear): causes an inflammation which is characterized by an increase in the thickness of the mouse's ear

SMILES: O=C(O)c1ccc(C#C/C=C/c2ccccc2-c2ccccc2)cc1 [Example 1, 4-(4-Biphenyl-2-ylbut-3-en-(E)-1-ynyl)benzoic acid]
- % of inhibition of the agonist activity (RAR [1]; dose 0.01% w/v): 78%
- RAR-antagonist classification from the mouse-ear oedema table (RAR [1]): RAR-antagonist compounds
- % of inhibition of the agonist activity (RAR [2]): 100%
- RAR-antagonist classification from the F9 table (RAR [2]): RAR-antagonist compounds

SMILES: Cc1ccc(-c2ccccc2/C=C/C#Cc2ccc(C(=O)O)cc2)cc1 [Example 2, 4-[4-(4'-Methylbiphenyl-2-yl)but-3-en-(E)-1-ynyl]benzoic acid]
- % of inhibition of the agonist activity (RAR [1]; dose 0.01% w/v): 85%
- RAR-antagonist classification from the mouse-ear oedema table (RAR [1]): RAR-antagonist compounds
- % of inhibition of the agonist activity (RAR [2]): 94%
- RAR-antagonist classification from the F9 table (RAR [2]): RAR-antagonist compounds

SMILES: Cc1ccc(-c2cccc(F)c2/C=C/C#Cc2ccc(C(=O)O)cc2)cc1 [Example 11, 4-[4-(3-Fluoro-4'-methylbiphenyl-2-yl)but-3-en-(E)-1-ynyl]benzoic acid]
- % of inhibition of the agonist activity (RAR [1]; dose 0.1% w/v): 99%
- RAR-antagonist classification from the mouse-ear oedema table (RAR [1]): RAR-antagonist compounds
- % of inhibition of the agonist activity (RAR [2]): 96%
- RAR-antagonist classification from the F9 table (RAR [2]): RAR-antagonist compounds

SMILES: Cc1ccc(-c2ccc(C)cc2/C=C/C#Cc2ccc(C(=O)O)cc2)cc1 [Example 12, 4-[4-(4,4'-Dimethylbiphenyl-2-yl)but-3-en-1-ynyl]benzoic acid]
- % of inhibition of the agonist activity (RAR [1]; dose 0.01% w/v): 45%
- RAR-antagonist classification from the mouse-ear oedema table (RAR [1]): RAR-antagonist compounds
- % of inhibition of the agonist activity (RAR [2]): 87%
- RAR-antagonist classification from the F9 table (RAR [2]): RAR-antagonist compounds

SMILES: Cc1ccc(-c2c(C)cccc2/C=C/C#Cc2ccc(C(=O)O)cc2)cc1 [Example 14, 4-[4-(6,4'-Dimethylbiphenyl-2-yl)but-3-en-(E)-1-ynyl]benzoic acid]
- % of inhibition of the agonist activity (RAR [1]; dose 0.1% w/v): 93%
- % of inhibition of the agonist activity (RAR [2]): 95%

SMILES: COCOc1ccc(-c2ccc(C)cc2)c(/C=C/C#Cc2ccc(C(=O)O)cc2)c1 [Example 15, 4-[4-(4-Methoxymethoxy-4'-methylbiphenyl-2-yl)but-3-en-(E)-1-ynyl]benzoic acid]
- % of inhibition of the agonist activity (RAR [1]; dose 0.01% w/v): 43%
- % of inhibition of the agonist activity (RAR [2]): 93%

SMILES: COCOc1ccc(/C=C/C#Cc2ccc(C(=O)O)cc2)c(-c2ccc(C)cc2)c1 [Example 16, 4-[4-(5-Methoxymethoxy-4'-methylbiphenyl-2-yl)but-3-en-(E)-1-ynyl]benzoic acid]
- % of inhibition of the agonist activity (RAR [1]; dose 0.01% w/v): 34%
- % of inhibition of the agonist activity (RAR [2]): 92%

SMILES: COCOc1cccc(/C=C/C#Cc2ccc(C(=O)O)cc2)c1-c1ccc(C)cc1 [Example 17, 4-[4-(6-Methoxymethoxy-4'-methylbiphenyl-2-yl)but-3-en-(E)-1-ynyl]benzoic acid]
- % of inhibition of the agonist activity (RAR [1]; dose 0.1% w/v): 94%
- % of inhibition of the agonist activity (RAR [2]): 98%

SMILES: C/C(=C\C#Cc1ccc(C(=O)O)cc1)c1ccccc1-c1ccc(C)cc1 [Example 18, 4-[4-(4'-Methylbiphenyl-2-yl)pent-3-en-(E)-1-ynyl]benzoic acid]
- % of inhibition of the agonist activity (RAR [1]; dose 0.1% w/v): 41%
- % of inhibition of the agonist activity (RAR [2]): 69%

SMILES: COCOc1ccc(-c2ccccc2/C=C/C#Cc2ccc(C(=O)O)cc2)cc1 [Example 28, 4-[4-(4'-Methoxymethoxybiphenyl-2-yl)but-3-en-(E)-1-ynyl]benzoic acid]
- % of inhibition of the agonist activity (RAR [1]; dose 0.01% w/v): 31%
- RAR-antagonist classification from the mouse-ear oedema table (RAR [1]): RAR-antagonist compounds
- % of inhibition of the agonist activity (RAR [2]): 96%
- RAR-antagonist classification from the F9 table (RAR [2]): RAR-antagonist compounds

SMILES: COc1ccc(/C=C/C#Cc2ccc(C(=O)O)cc2)c(-c2ccc(C)cc2)c1 [Example 42, 4-[4-(4'-Methyl-5-methoxybiphenyl-2-yl)but-3-en-(E)-1-ynyl]benzoic acid]
- % of inhibition of the agonist activity (RAR [1]; dose 0.01% w/v): 26%
- % of inhibition of the agonist activity (RAR [2]): 91%

SMILES: CCCOc1ccc(/C=C/C#Cc2ccc(C(=O)O)cc2)c(-c2ccc(C)cc2)c1 [Example 43, 4-[4-(4'-Methyl-5-propoxybiphenyl-2-yl)but-3-en-(E)-1-ynyl]benzoic acid]
- % of inhibition of the agonist activity (RAR [1]; dose 0.01% w/v): 24%
- % of inhibition of the agonist activity (RAR [2]): 84%

SMILES: Cc1ccc(-c2c(O)cccc2/C=C/C#Cc2ccc(C(=O)O)cc2)cc1 [Example 44, 4-[4-(4'-Methyl-6-hydroxybiphenyl-2-yl)but-3-en-(E)-1-ynyl]benzoic acid]
- % of inhibition of the agonist activity (RAR [1]; dose 0.1% w/v): 54%
- % of inhibition of the agonist activity (RAR [2]): 97%

SMILES: COc1cccc(/C=C/C#Cc2ccc(C(=O)O)cc2)c1-c1ccc(C)cc1 [Example 45, 4-[4-(4'-Methyl-6-methoxybiphenyl-2-yl)but-3-en-(E)-1-ynyl]benzoic acid]
- % of inhibition of the agonist activity (RAR [1]; dose 0.1% w/v): 99%
- % of inhibition of the agonist activity (RAR [2]): 95%

SMILES: COCOc1cccc(-c2ccc(C)cc2)c1/C=C/C#Cc1ccc(C(=O)O)cc1 [Example 52, 4-[4-(3-Methoxymethoxy-4'-methylbiphenyl-2-yl)but-3-en-(E)-1-ynyl]benzoic acid]
- % of inhibition of the agonist activity (RAR [1]; dose 0.1% w/v): 97%
- RAR-antagonist classification from the mouse-ear oedema table (RAR [1]): RAR-antagonist compounds
- % of inhibition of the agonist activity (RAR [2]): 97%
- RAR-antagonist classification from the F9 table (RAR [2]): RAR-antagonist compounds
